According to ChEMBL document CHEMBL1136548, “1,3,4 Trisubstituted pyrrolidine CCR5 receptor antagonists bearing 4-aminoheterocycle substituted piperidine side chains” (Bioorg Med Chem Lett, 2003):

Legend:
[1] = molecular target: T1, C-C chemokine receptor type 5 (Homo sapiens, UniProt P51681); experiment: Displacement inhibition of 125-I labeled MIP-alpha from CCR5 receptor expressed on CHO cell membranes
Target sequence in this assay (P51681 whole entry): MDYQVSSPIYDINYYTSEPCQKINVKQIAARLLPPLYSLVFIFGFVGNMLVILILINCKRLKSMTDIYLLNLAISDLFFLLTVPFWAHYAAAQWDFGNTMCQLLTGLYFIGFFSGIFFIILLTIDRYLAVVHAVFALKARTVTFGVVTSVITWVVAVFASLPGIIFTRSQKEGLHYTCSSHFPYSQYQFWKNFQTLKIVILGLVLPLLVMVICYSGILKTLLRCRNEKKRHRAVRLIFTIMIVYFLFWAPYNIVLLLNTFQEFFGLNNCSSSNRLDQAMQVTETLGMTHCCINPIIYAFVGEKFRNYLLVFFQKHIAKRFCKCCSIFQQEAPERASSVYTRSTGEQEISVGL

[2] = molecular target: T1, C-C chemokine receptor type 5; experiment: Inhibition over 48 hr of BAL strain HIV infection of HeLa Magi cells expressing CCR5; not active; type: functional, cell-based
Target sequence in this assay (P51681 whole entry): as above

[3] = Half life was evaluated in rat; type: ADME, organism-based; details: in vivo
[4] = Pharmacokinetic parameter expressed as plasma clearance in rat; type: ADME, organism-based; details: read-out: Clp
[5] = molecular target: T1, C-C chemokine receptor type 5; experiment: Compound tested for inhibiting the displacement of 125-I labeled MIP-alpha from CCR5 receptor expressed on CHO cell membranes at 1000 nM
Target sequence in this assay (P51681 whole entry, looked up): as the sequence (P51681 whole entry) above

[6] = Maximum plasma concentration was evaluated in rat; type: ADME, organism-based
[7] = Bioavailability in rat; type: ADME, organism-based; details: in vivo
[8] = molecular target: T1, C-C chemokine receptor type 5; experiment: Inhibition over 48 hr of BAL strain HIV infection of HeLa Magi cells expressing CCR5; Not active; type: functional, cell-based
Target sequence in this assay (P51681 whole entry): as above

[9] = molecular target: T1, C-C chemokine receptor type 5; experiment: Inhibition over 48 hr of BAL strain HIV infection of HeLa Magi cells expressing CCR5; type: functional, cell-based
Target sequence in this assay (P51681 whole entry, looked up): as the sequence (P51681 whole entry) above

[10] = Tested for antiviral activity in peripheral blood mononuclear cells (PBMC); type: functional

With `C=CCN(c1ccc(C(F)(F)F)cn1)C1CCN(C[C@H]2CN(C(=O)C3CCCCC3)C[C@@H]2c2ccccc2)CC1` the IC50 [1] was 21 nM.
With `C=CCN(c1ccncc1)C1CCN(C[C@H]2CN(C(=O)C3CCCCC3)C[C@@H]2c2ccccc2)CC1` the IC50 [2] was “Not Active” and the IC50 [1] was 66 nM.
With `CCCN(c1ccncn1)C1CCN(C[C@H]2CN([C@H](CC3CCC3)C(=O)O)C[C@@H]2c2cccc(F)c2)CC1` the IC50 [1] was 1.2 nM, the half-life [3] was 54 min and the clearance [4] was 90 mL/min/kg.
With `CCCN(c1ccccn1)C1CCN(C[C@H]2CN(C(=O)c3ccccc3Cl)C[C@@H]2c2ccccc2)CC1` the IC50 [1] was 14 nM.
For `C=CCN(c1ncccn1)C1CCN(C[C@H]2CN(C(=O)C3CCCCC3)C[C@@H]2c2ccccc2)CC1`, the IC50 [1] was 12 nM.
`CCCCCCN(c1ccccn1)C1CCN(C[C@H]2CN(C(=O)C3CCCCC3)C[C@@H]2c2ccccc2)CC1` gave an inhibition [5] of 64%.
`CCCN(c1ccccn1)C1CCN(C[C@H]2CN(C(=O)C3CCC3)C[C@@H]2c2ccccc2)CC1` showed an IC50 [1] of 10 nM.
`CCCN(c1ncccn1)C1CCN(C[C@H]2CN([C@@H](C(=O)O)C3CCCCC3)C[C@@H]2c2cccc(F)c2)CC1` gave a Cmax [6] of 140 nM, an IC50 [1] of 1.6 nM and a clearance [4] of 13 mL/min/kg. The bioavailability [7] was 20%.
`O=C(C1CCCCC1)N1C[C@H](CN2CCC(N(Cc3ccccc3)c3ccccn3)CC2)[C@@H](c2ccccc2)C1` gave an inhibition [5] of 78%.
`C=CCN(c1cccnc1)C1CCN(C[C@H]2CN(C(=O)C3CCCCC3)C[C@@H]2c2ccccc2)CC1` showed an IC50 [1] of 23 nM.
`CCCN(c1nccc(OC)n1)C1CCN(C[C@H]2CN([C@H](CC3CCC3)C(=O)O)C[C@@H]2c2cccc(F)c2)CC1` showed an IC50 [1] of 0.8 nM.
For `CCCN(c1cccnc1)C1CCN(C[C@H]2CN([C@@H](C(=O)O)C3CCCCC3)C[C@@H]2c2ccccc2)CC1`, the Cmax [6] was 19 nM, the IC50 [1] was 5 nM and the clearance [4] was 106 mL/min/kg. It also gave a bioavailability [7] of 8%.
Work on `CCCN(c1cncnc1)C1CCN(C[C@H]2CN([C@H](CC3CCC3)C(=O)O)C[C@@H]2c2cccc(F)c2)CC1` yielded a Cmax [6] of 28 nM, an IC50 [1] of 1.7 nM and a half-life [3] of 18 min. The clearance [4] was 81 mL/min/kg and the bioavailability [7] was 8%.
`C=CCN(c1ccccn1)C1CCN(C[C@H]2CN(C(=O)C3CCCCC3)C[C@@H]2c2ccccc2)CC1` gave an IC50 [1] of 6 nM.
In the case of `CCCN(c1ncc(F)cn1)C1CCN(C[C@H]2CN([C@H](CC3CCC3)C(=O)O)C[C@@H]2c2cccc(F)c2)CC1`, the IC50 [1] is reported as 0.4 nM.
`O=C(C1CCCCC1)N1C[C@H](CN2CCC(N(CC3CC3)c3ccccn3)CC2)[C@@H](c2ccccc2)C1` gave an IC50 [1] of 9 nM.
`CCCN(c1ccccn1)C1CCN(C[C@H]2CN(C(=O)N3CCCC3)C[C@@H]2c2ccccc2)CC1` showed an IC50 [1] of 9 nM.
With `CCCN(c1ncc(C(F)(F)F)cn1)C1CCN(C[C@H]2CN([C@H](CC3CCC3)C(=O)O)C[C@@H]2c2cccc(F)c2)CC1` the Cmax [6] was 433 nM, the IC50 [1] was 0.5 nM and the half-life [3] was 168 min. It also gave a clearance [4] of 9 mL/min/kg and a bioavailability [7] of 72%.
`CCCN(c1nccc(C(F)(F)F)n1)C1CCN(C[C@H]2CN([C@H](CC3CCC3)C(=O)O)C[C@@H]2c2cccc(F)c2)CC1` gave a Cmax [6] of 177 nM, an IC50 [1] of 1.2 nM and a half-life [3] of 90 min. It also gave a clearance [4] of 13 mL/min/kg and a bioavailability [7] of 25%.
For `C=CCN(c1ccccc1)C1CCN(C[C@H]2CN(C(=O)C3CCCCC3)C[C@@H]2c2ccccc2)CC1`, the IC50 [8] was “Not Active” and the IC50 [1] was 42 nM.
For `CCCN(c1ccccn1)C1CCN(C[C@H]2CN([C@@H](C(=O)O)C3CCCCC3)C[C@@H]2c2ccccc2)CC1`, the Cmax [6] was 53 nM, the IC50 [1] was 3.9 nM and the clearance [4] was 53 mL/min/kg. It also gave a bioavailability [7] of 20%.
With `C=CCN(C(=O)OCc1ccc([N+](=O)[O-])cc1)C1CCN(C[C@H]2CN(C(=O)c3ccccc3Cl)C[C@@H]2c2ccccc2)CC1` the IC90 [9] was 1 nM and the IC95 [10] was 0.031 µM.
`CCN(c1ncccn1)C1CCN(C[C@H]2CN([C@H](CC3CCC3)C(=O)O)C[C@@H]2c2cccc(F)c2)CC1` gave a Cmax [6] of 210 nM, an IC50 [1] of 1.5 nM and a half-life [3] of 66 min. It also gave a clearance [4] of 26 mL/min/kg and a bioavailability [7] of 33%.
With `CCCN(c1ccccn1)C1CCN(C[C@H]2CN(C(=O)C3CCCCC3)C[C@@H]2c2ccccc2)CC1` the IC50 [1] was 12 nM.
Work on `CCCN(c1ncccn1)C1CCN(C[C@H]2CN([C@H](CC3CCC3)C(=O)O)C[C@@H]2c2cccc(F)c2)CC1` yielded a Cmax [6] of 256 nM, an IC50 [1] of 1.8 nM and a half-life [3] of 66 min. It also gave a clearance [4] of 28 mL/min/kg and a bioavailability [7] of 29%.
Compound `O=C(O)[C@@H](CC1CCC1)N1C[C@H](CN2CCC(N(CC3CC3)c3ncccn3)CC2)[C@@H](c2cccc(F)c2)C1` has an IC50 [1] of 1.1 nM, a half-life [3] of 42 min and a clearance [4] of 28 mL/min/kg.
With `CCCN(c1ncccn1)C1CCN(C[C@H]2CN([C@@H](C(=O)O)C3CCCCC3)C[C@@H]2c2ccccc2)CC1` the Cmax [6] was 49 nM, the IC50 [1] was 6.6 nM and the clearance [4] was 17 mL/min/kg. The bioavailability [7] was 8%.
